Experimental data as given in US20160199491A1, “Compounds compositions and methods including thermally labile moieties” (Biosearch Technologies, Inc., priority 2014, published 2016).

Assay: Deprotection of a Boc-protected PCR primer at 94° C. in water, PCR buffer or TEAA, tracked by reverse-phase HPLC and mass spec
Type: physicochemical
Description: The RNaseP forward primer 19-mer [AGATTTGGACCTGCGAGCG](SEQ ID NO: 1) was synthesized on Boc-dG CPG (1 μmol) with Boc dA, dC, and dG amidites. The fully deprotected mass for this primer is 5868 g/mol and the expected mass for Boc protection is […] [15 Boc residues.100 amu/Boc=1500 added]. Deprotection of side chain protecting groups was performed with 25% 2-methoxyethylamine in methanol (1 mL) for 3 hrs at room temp, remove CPG and evaporate to dryness, re-dissolve in DI water (1 mL). The DMT was […] because the Boc group can be used as a hydrophobic handle. The product was desalted with 20-50 micron polystyrene beads packed in a 1 mL cartridge and eluted in 20% ACN/H2O.
The desalted Boc-primer was aliquoted into three microfuge tubes of 100 uL each. The samples were dried down and brought up in 1 mL of house DI water. Only water was added to the first tube. To the second tube 1 mL of PCR buffer pH 8.5, 1× with MgCl2, was added to a final concentration of 6 mM (standard PCR concentrations). To the third tube TEAA was added to give a final concentration of 0.025 N. Each of the three samples was aliquoted into ten 200 uL thin-walled PCR tubes for a total of 30 tubes. All primer preparation was done at room temperature.
An ABI 9700 Thermocycler was preheated to 94° C. Each sample was placed into the heat block and removed at the time point and placed on dry ice to stop the reaction. As a negative control, the T=0 sample was not heated and placed directly in ice at the beginning of the experiment. The samples were allowed to thaw at room temperature and transferred to a 96-well plate for HPLC and mass spectroscopy analysis.
For each time point, reverse-phase and mass spec data were acquired to track the removal of the Boc protecting group. The Boc protected primer is not a single species but rather a collection at various stages of protection.

Boc-primer: RNaseP forward primer 19-mer [AGATTTGGACCTGCGAGCG] (SEQ ID NO: 1) synthesized with Boc dA, dC, and dG amidites (listed as DNA, chemistry not fully specified)
deprotection after 10 minutes under normal PCR buffering (10 minutes, PCR buffer pH 8.5, 1× with MgCl2 6 mM): deprotected | Boc groups after 10 minutes in TEAA (10 minutes, TEAA 0.025 N): some remained | Boc groups after 10 minutes (10 minutes, samples in water, PCR buffer pH 8.5 with MgCl2 6 mM, TEAA 0.025 N): almost all of the Boc groups were gone | Boc groups after 15 minutes in TEAA (15 minutes, TEAA 0.025 N): all were removed
